Experimental data: PubChem BioAssay (NCI)
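Test compounds were applied to cells in 96-well plates for 48 hours at 5 doses. TGI denotes the concentration required for complete inhibition of growth.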

Experiments:
Experiment in all cases: NCI anticancer screen, dose series, 48 h
[1] = test system: HCT-15 colon
[2] = test system: HOP-92 NSCLC
[3] = test system: MALME-3M melanoma
[4] = test system: MDA-N
[5] = test system: NCI-H460 lung
[6] = test system: NCI-H522 lung
[7] = test system: OVCAR-8 ovarian
[8] = test system: PC-3 prostate
[9] = test system: SNB-19 CNS
[10] = test system: T-47D breast
[11] = test system: OVCAR-4 ovarian
[12] = test system: U251 CNS

| Compound | TGI [1] [µM] | TGI [2] [µM] | TGI [3] [µM] | TGI [4] [µM] | TGI [5] [µM] | TGI [6] [µM] | TGI [7] [µM] | TGI [8] [µM] | TGI [9] [µM] | TGI [10] [µM] | TGI [11] [µM] | TGI [12] [µM] |
| --- | --- | --- | --- | --- | --- | --- | --- | --- | --- | --- | --- | --- |
| COc1ccc2nc(-c3ccccc3)c(=O)[nH]c2c1 | > 100 | > 100 | > 100 | > 100 | > 100 | > 100 | > 100 | > 100 | > 100 | > 100 |  |  |
| CCOC(=O)c1ccc(-c2ccc(Cl)cc2)[nH]1 | > 10 | > 10 | > 10 | > 10 | > 10 | > 10 | > 10 |  | > 10 |  | > 10 | > 10 |
| CCOC(=O)CCC(NC(=O)c1ccc(NCc2ccc3nc(-c4ccccc4)c(Cl)nc3c2)cc1)C(=O)OCC (configuration not stated) | > 100 | 27.3 | 26 |  | > 100 | 57.8 |  |  | > 100 |  | 90.6 | > 100 |
| S=C1NCCN1C(=S)Nc1ccccc1 | > 100 | > 100 | > 100 | > 100 | > 100 | > 100 | > 100 |  |  | > 100 | > 100 | > 100 |
| COc1ccc(/C(Cl)=C(\C#N)c2ccc(OC)c(OC)c2)cc1OC | > 100 | > 100 |  | > 100 | > 100 | > 100 |  | > 100 | > 100 | > 100 | > 100 | > 100 |
| CCOP(=O)(OCC)/C(C#N)=C/c1ccc(-c2cc(C(F)(F)F)cc(C(F)(F)F)c2)o1 | 20.7 | 20.7 |  | 27.2 | 19.1 | 24.6 | 32 | 24 | 32 | 40 |  | 24.4 |
| Cc1n[n+](Cc2ccccc2)c2sc(N)nn12 | > 100 |  | > 100 | > 100 |  | 76.2 | > 100 | > 100 | > 100 | > 100 | > 100 | > 100 |
| N/C(=N\S(=O)(=O)c1ccc(-c2ncccc2C(F)(F)F)s1)Nc1ccc(Cl)cc1 | 32.2 | 30 | 30.1 |  | 25.9 | 23.6 | 29.7 | 25.8 | 34.4 | 48.3 | 42.9 | 25.8 |
| Cc1ccc(NC(=O)C(=O)C2C(=O)NC(=O)NC2=O)cc1C | > 100 | > 100 | > 100 |  | > 100 | > 100 | > 100 |  | > 100 |  | > 100 | > 100 |
| CN1CCN(/C(N)=C(\C#N)C(=O)Nc2ccc(Cl)cc2)CC1 | > 100 | > 100 |  | > 100 | > 100 |  | > 100 | > 100 | > 100 | > 100 |  | > 100 |
| O=C1c2ccccc2C(=O)N1C/C=N/NS(=O)(=O)c1ccc(Br)cc1 | > 100 | > 100 | > 100 |  | > 100 | > 100 | > 100 |  | > 100 |  | > 100 | > 100 |
| c1ccc2c3[nH]c(c2c1)=Nc1ccc(cc1)-c1nc2ccc(cc2o1)N=c1[nH]c(c2ccccc12)=Nc1ccc2nc(oc2c1)-c1ccc(cc1)N=3 | 25.3 | > 100 |  | > 100 | 20.5 | > 100 | > 100 | > 100 | 81 | > 100 |  | 88.3 |
| COc1cccc(-c2nc(-c3cnccn3)n(C/C=C/c3ccccc3)n2)c1 | > 10 | > 10 | > 10 | > 10 | > 10 | > 10 | > 10 | > 10 | > 10 |  | > 10 | > 10 |
| CCOC(=O)c1c(OCC)[nH]c(=O)c(C(c2cccs2)c2c(O)c(C(=O)OCC)c(OCC)[nH]c2=O)c1O | 37.5 | 48.2 | 25.6 |  | 39.8 | 27.6 | 41.6 | > 100 | 39.8 | 17 | 76 | 30.3 |
| CC(=O)O[C@@]12CO[C@@H]1CC(O)[C@@]1(C)C(=O)[C@H](O)C3=C(C)C(O)C[C@@](O)(C(OC(=O)c4ccccc4)C12)C3(C)C (some centres not stated) | > 100 | > 100 | > 100 |  | > 100 |  | > 74.9 | > 100 | > 100 | > 100 | > 100 | 18.1 |
| N[C@H](Cc1ccc2oc3cc(=O)c4ccccc4c-3nc2c1)C(=O)O | > 100 | > 100 | 38.5 | 38.1 | > 100 | > 100 | > 100 |  | > 100 | > 100 | > 100 | > 100 |
| CCCC(=O)[O-].CCCC(=O)[O-].NCCN.NCCN.[Co+3].[O-][Cl+3]([O-])([O-])[O-] | > 100 | > 100 | > 100 |  | > 100 | > 100 | > 100 |  | > 100 |  | > 100 | > 100 |
| CSc1ccc2c(cc1=O)[C@@H](NC(=O)c1cc(O)c(O)c(O)c1)CCc1cc(O)c(O)c(O)c1-2 | 41.4 |  | 93.3 |  | 44.3 | 44.4 | 54.2 |  | > 100 |  | 22.7 | 37.7 |
| COC(=O)C1=C(OC)[C@H]2C#C/C=C\C#C[C@@H]3Nc4c(cc(O)c5c4C(=O)c4ccccc4C5=O)[C@]24O[C@@]34[C@H]1C | 0.0147 | < 0.01 | 0.103 | 0.0113 | > 100 | 0.0177 | < 0.01 | 0.138 |  |  | 0.2 | < 0.0133 |
| COc1cc(Nc2nc3cc(C(F)(F)F)ccc3nc2C(=O)O)cc(OC)c1OC | > 100 | 85 | > 100 | > 100 | > 100 | > 100 | > 100 |  | > 100 | > 100 | > 100 | > 100 |
